The source of these data is PMC7900799, “Synthesis, antibiotic structure–activity relationships, and cellulose dissolution studies of new room-temperature ionic liquids derived from lignin” (Biotechnology for Biofuels, 2021).

Like-named read-outs stand apart in the source and are kept apart here.

One data set deals with E. coli strain 1A1. Put plainly: Broth dilution assay (antibiotic assay), growth at 600 nm after 24 h. In kind it is cell-based. Here is the method: (§1) To determine if the antibacterial activity of 5 was due to pH effects, an additional broth dilution assay was performed using sodium hydroxide as a positive control.
E. coli strain 1A1 [43] was obtained from the microbial strain repository at the Joint Bioenergy Institute at Lawrence Berkeley National Laboratory. A 10 mL culture in Luria Broth (LB) media was grown for 18 h at 37 °C with shaking at 200 rpm. The culture was then diluted into LB media to an absorbance of 0.05 at 600 nm, and added into the wells of a 96-well plate (first row = 190 µL, all other wells = 100 µL/well). Approximately 700 mg of IL was dissolved into 1 mL of methanol, and 10 µL of each IL solution was added to first row wells of the plate. A twofold serial dilution was performed down the plate by mixing and transferring 100 µL using a multi-channel pipette. To maintain isochoric conditions, 100 µL was discarded from bottommost wells. The plate was then incubated at 37 °C with shaking at 150 rpm. After 24 h incubation, E. coli growth was quantified at 600 nm using an Epoch Microplate Spectrophotometer (Gen5 software). […] All experiments were repeated 3–7 times and error bars in Fig. 5 represent standard deviation. Statistical F-test was performed to determine the appropriate t-test (i.e., equal or unequal variance) to analyze significant difference between IC50 data.
A general note: Dilution methods test growth across graded concentrations, often in twofold steps.

In the next data set the test system is Daphnia magna. Put plainly: 48-h acute toxicity study on D. magna. Particulars: for IC50: Daphnia magna, 48 h, read-out: IC50 against D. magna. In kind it is in vivo. Here is the method: Procedures for cultivating and performing acute toxicity assays with D. magna generally followed the US EPA protocol. Daphnia magna was cultured from stocks supplied by Aquatic Bio Systems Inc. (Fort Collins, CO). The organisms were cultured in 900-mL jars filled with moderately hard water from the recipe: 0.473 g CaSO4, 0.959 g NaHCO3, 1.223 g MgSO4·7H2O, and 0.039 g KCl per 10 L of deionized water. 2 mL of algae (Selenastrum capriconutum) containing 3.0 × 10^7 cells/mL were fed to D. magna on both Tuesdays and Thursdays with water changes as well as feedings on Saturdays. All glass jars were placed in a Thermo Scientific Precision incubator (Fischer Scientific, Hampton, NH) at a holding temperature of 20 °C and on a 12 h:12 h light:dark cycle. This procedure was conducted approximately a month prior to the beginning of the project. To prepare D. magna for use in acute experiments, three hundred adult daphnids were separated into five 1-L beakers with 60 daphnids each. These daphnids were used a week later in the experiment. All daphnid cultures followed the same protocol for feeding and water changes as mentioned previously.
A 48-h acute toxicity study was carried out to examine the toxic effects of 11 and 12 on D. magna, Glass jars were filled with moderately hard water and spiked with the appropriate concentration of IL from stock solution to a total volume of 50 mL. For each IL, 5 different concentrations were studied. Control jars were set up with only 50 mL of moderately hard water. Four replicates were used for each concentration and each replicate had four daphnids. The daphnids were placed into glass jars for each concentration of ILs. All glass jars were placed in a Thermo Scientific Precision incubator (Fischer Scientific, Hampton, NH) at a holding temperature of 20 °C and on a 12 h:12 h light:dark cycle. Mortality in each jar was recorded every 24 h.

Data set [1] can be described thus: pH of LB media at the IC50 concentration. The note with it: at IC50 against E. coli. The data set is classed as physicochemical. Here is the method: as §1
The mark [2] stands for this setting: Escherichia coli, 1A1, 24 h, E. coli strain 1A1, LB media, 24 h, 37 °C, read-out: IC50 (concentration of IL required to decrease bacterial growth by 50%).
[3] abbreviates: E. coli strain 1A1, LB media, 24 h, 37 °C, read-out: IC50 (concentration of IL required to decrease bacterial growth by 50%).

On to `COc1ccc(C[N+](C)(C)C)cc1` [Compound 6], for which the IC50 in the data set on E. coli strain 1A1 (setting [2]) turned out to be 11.6 ± 1.7 mM. Turning to `COc1cc(C[N+](C)(C)C)cc(OC)c1OC` [Compound 7], the IC50 with E. coli strain 1A1 (setting [2]) was determined as 22.2 ± 0.8 mM.

As to `COc1ccc(C[N+](C)(C)C)cc1OC` [Compound 11], the “fold reduction of toxicity of the methanesulfonate compared with the acetate anion (8)” value with E. coli strain 1A1 (E. coli, vanillin-derived N,N,N-trimethyl cation) was 1.6 fold. For the same compound, the IC50 in the data set with E. coli strain 1A1 (Escherichia coli, 1A1, 24 h, read-out: IC50 (concentration of IL required to decrease bacterial growth by 50%)) stood at 78.7 ± 2.5 mM; in the data set with Daphnia magna, 0.319 ± 0.066 mM. In the data set on Daphnia magna (0.319 mM vs 78.7 mM), the “fold by which IC50 against D. magna is lower than IC50 against E. coli” value is reported as “approximately 250 fold”.

On to `[Na+].[OH-]` [NaOH, sodium hydroxide, reference compound], for which, in data set [1], the “pH of LB media at the IC50 concentration” value is given as 9.4. For the same compound, in the data set on E. coli strain 1A1 (setting [3]), the IC50 amounted to 25.5 mM. Turning to `CCCC[N+](CCCC)(CCCC)CCCC` [Compound 2, Tetrabutylammonium acetate], the IC50 in the data set with E. coli strain 1A1 (Escherichia coli, 1A1, 24 h, read-out: IC50 (concentration of IL required to decrease bacterial growth by 50%), E. coli strain 1A1, LB media, 24 h, 37 °C) turned out to be 13.2 ± 2.9 mM. Take `CC[N+](C)(CC)Cc1ccc(OC)c(OC)c1` [Compound 9, N-(3,4-Dimethoxybenzyl)-N-ethyl-N-methylethanaminium acetate]: the IC50 in the data set on E. coli strain 1A1 (setting [2]) stood at 19.6 ± 0.4 mM. As for `C[N+](C)(C)Cc1ccccc1` [Compound 5, benzyltrimethylammonium hydroxide, reference compound], the “pH of LB media at the IC50 concentration” value in data set [1] was 8.5. The IC50 with E. coli strain 1A1 (setting [3]) amounted to 10.4 ± 0.3 mM. For the compound `CCC[N+](C)(CCC)Cc1ccc(OC)c(OC)c1` [Compound 10, N-(3,4-Dimethoxybenzyl)-N-methyl-N-propylpropan-1-ammonium acetate], in the data set on E. coli strain 1A1 (setting [2]), the IC50 came out at 17.7 ± 0.9 mM. As to `CCCC[N+](CCCC)(CCCC)CCCC` [Compound 3, tetrabutylammonium bromide, reference compound], the IC50 in the data set with E. coli strain 1A1 (read-out: IC50 (concentration of IL required to decrease bacterial growth by 50%), E. coli strain 1A1, LB media, 24 h, 37 °C) stood at 10 ± 1.3 mM. As to `COc1ccc(C[N+](C)(C)C)cc1OC` [Compound 8], the IC50 in the data set on E. coli strain 1A1 (setting [2]) was determined as 48.2 ± 3.3 mM.

`COc1cc(C[N+](C)(C)C)cc(OC)c1OC` [Compound 12]: the “fold more toxic to D. magna than vanillin-derived IL 11” value in the data set with Daphnia magna (48-h acute toxicity) is reported as 2.6 fold. Moreover, in the data set with Daphnia magna, the IC50 was found to be 0.123 ± 0.012 mM. Consider `C[N+](C)(C)Cc1ccccc1` [Compound 4, Benzyltrimethylammonium acetate], for which, in the data set on E. coli strain 1A1 (setting [3]), the IC50 is 47.8 ± 0.6 mM.
